Assay results from patent US20260085076A1, “CRYSTAL FORM OF AROMATIC HETEROCYCLIC COMPOUND, COMPOSITION THEREOF, PRODUCTION METHOD THEREOF AND USES THEREOF” (Hangzhou Yuhong Pharmaceutical Technology Co., Ltd., priority 2023, published 2026).
Converted amounts (≈) assume the structure as drawn. “Also recorded” adds a separate entry of the source. Each block holds one compound with its values, some of them ahead of it.

What was measured:
SRBC mouse model = assay: SRBC-induced delayed-type hypersensitivity (DTH) in mice; format: in vivo, Balb/c mice; details: 100 mg/kg gavage once a day, day 0 to day 6, FIG. 76
Method: Drug formulation: The compound was added to 0.5% CMC-Na solution to formulate a drug suspension (dosage is 10 mg/mL).
Induction and administration of delayed-type hypersensitivity (DTH): 30 male Balb/c mice were weighed and randomly divided into 6 groups according to body weight, with 5 mice in each group. The experimental period lasted for 7 days. On day 0, mice were sensitized by subcutaneous injection of sheep red blood cells (SRBC). The mice were performed gavage administration at 100 mg/kg (once a day) from day 0 to day 6. On day 6, the mice were injected SRBC into the right hind foot pad for challenge. Measurements were taken on the 7th day of the experiment, and the experiment was concluded.
Pharmacodynamic detection indicators of disease models: the detection and observation indicators are the redness and swelling degree and thickness of the paw pads of SRBC-induced mice. The thickness of the right paw was measured on day 6 before the SRBC injection challenge as the baseline. The thickness of the right paw was measured again at the end of the experiment, the difference in paw thickness before and after the second injection was calculated.
Statistical analysis: The experimental data were expressed as mean±standard deviation (Mean±SD). All data were statistically analyzed using T-test, with P<0.05 considered statistically significant.

[1] = DVS and isotherm curves, moisture absorption; format: physicochemical
[2] = Hot stage XRPD, crystal transformation on heating; format: physicochemical
[3] = tested on: collagen-induced arthritis model in mice; assay: Collagen-induced arthritis model in mice (mCIA); format: in vivo, DBA/1J mice; details: 50 mg/kg once a day, FIG. 77
Method: 1. Construction of collagen-induced arthritis model in mice (mCIA) Experimental purpose: To test the immunosuppressive activity of YZ001052 in the mCIA model. PF-06651600 was used as a positive control compound.
Complete and incomplete Freund's adjuvants with chicken type II collagen solution were mixed in equal proportions to form emulsions. Except for the blank control group, a mixture of complete Freund's adjuvant and chicken type II collagen solution was injected subcutaneously into the base of the tail and thigh of mice on Day 0. Each mouse was injected subcutaneously with 100 μL at the base of the tail, and injected 50 μL subcutaneously at the base of both thighs (primary immunization). On day 21, mice were injected subcutaneously with 200 μL of a mixture of incomplete Freund's adjuvant and chicken type II collagen as a booster injection (second immunization). Arthritis was considered to occur if the clinical score of at least one limb was >2 points. Paw thickness measurement: Using a vernier caliper to measure the thickness of the left and right hind feet of the mouse and record it, which is the degree of paw swelling. The detection frequency was once every 3 days.

[4] = tested on: p-STAT5 under IL-15 stimulation in PBMC (JAK-STAT pathway); assay: p-STAT5 ELISA in IL-15 stimulated hPBMC cells; format: cell-based, human; details: 45 min compound, 30 min IL-15, ELISA
Method: Based on the mechanism of JAK-STAT pathway, the effect of the compounds on the JAK-STAT pathway were evaluated by using cytokine IL-15 to stimulate hPBMC cells, and using the downstream STAT5 phosphorylation level as the detection index.
1. PBMC cell counting plate: 90 μL PBMC was seeded in a 96-well plate (PBMC cell density 80,000/well).
2. Treatment with test compounds: After cells being seeded, drug treatment was carried out immediately. The drugs to be tested at 5 μL/well (final concentrations 1, 0.5, 0.1, 0.05, 0.01, and 0.005 μM) were incubated at 37° C. for 45 min.
3. Cytokine IL-15 stimulation: The cells were stimulated by 5 μL IL-15, and incubated at 37° C. for 30 min.
4. Protein sample collection: The cells were collected in a centrifuge tube and centrifuged for 5 minutes. The supernatant was discarded and cells were lysed with 1× Cell Extraction Buffer PTR.
5. p-STAT5 detection: Perform detection according to the requirements of the ELISA kit.
Experimental results: IC50 values of compounds on p-STAT5 under IL-15 stimulation in PBMC

[5] = Crystal competition experiment in water; format: physicochemical; details: mixture of forms I-IX suspended in water, room temperature, 4 and 7 days, XRD
[6] = Influencing factors test of crystal form (high temperature, high humidity); format: physicochemical
Method: (§1) Samples of crystal form I produced in Example 15 were taken, which were 15 samples of 50 mg each, and sealed with aluminum foil bags. The crystal stability of the above samples were studied under high temperature (60±2° C.), high humidity (RH90%±5%), long-term test (25° C.±2° C., RH 60%±5%) and accelerated test (40° C.±2° C., RH 75%±5%) conditions. […] The long-term and accelerated 3-month crystal form is stable.

[7] = Solubility at different pH values; format: physicochemical; details: thermodynamic from solid
Method: Excess samples of crystal form I were respectively added to 10 mL of solutions with different pH value. After being shaken for 24 hours by a constant temperature shaker at 32° C. at 100 rpm, the saturated solutions (with undissolved solids at the bottom) were centrifuged and filtered, then determined linear solutions (formulated with reference substances) with different concentrations and saturated solutions with different pH values under the content item. The solubility of the samples at different pH values were calculated using the standard curve as follows, see FIG. 75 for details.

[8] = Crystal competition experiment in anhydrous ethanol; format: physicochemical; details: mixture of forms I-IX suspended in anhydrous ethanol, room temperature, 4 days, XRD
Method: 2 mg each of the aromatic heterocyclic compound of crystal form I, crystal form II, crystal form III, crystal form IV, crystal form V, crystal form VI, crystal form VII, crystal form VIII and crystal form IX was added to 3 ml of anhydrous ethanol to form a suspension.

[9] = Stability test of crystal form (long-term, accelerated); format: physicochemical
Method: as §1

SMILES: C=C(F)C(=O)N1CCc2c(c(-c3ccnc4[nH]ccc34)nn2C)C1 [YZ001054]
- immunosuppressive effect on SRBC-induced delayed-type hypersensitivity (right paw thickness) (SRBC mouse model): significant immunosuppressive effects

- moisture absorption rate [1]: about 1.3%
SMILES: C=CC(=O)N1CCc2c(c(-c3ccnc4[nH]ccc34)nn2C)C1 [crystal form VIII, 1-(1-methyl-3-(1H-pyrrolo[2,3-b]pyridin-4-yl)-1,4,6,7-tetrahydro-5H-pyrazolo[4,3-c]pyridin-5-yl)prop-2-en-1-one]
- crystal transformation in hot stage XRPD [2]: most of the crystals were transformed into crystal form I at 150 °C

- moisture absorption rate [1]: about 2.4%
SMILES: C=CC(=O)N1CCc2c(c(-c3ccnc4[nH]ccc34)nn2C)C1 [crystal form II, 1-(1-methyl-3-(1H-pyrrolo[2,3-b]pyridin-4-yl)-1,4,6,7-tetrahydro-5H-pyrazolo[4,3-c]pyridin-5-yl)prop-2-en-1-one]
- crystal transformation in hot stage XRPD [2]: transformed into crystal form I at 150 °C

SMILES: C=CC(=O)N1Cc2c(-c3ccnc4[nH]ccc34)nn(C(C)C)c2C[C@H]1C [YZ001085]
- immunosuppressive effect on SRBC-induced delayed-type hypersensitivity (right paw thickness) (SRBC mouse model): significant immunosuppressive effects

SMILES: C=CC(=O)N1C[C@H](Nc2ncnc3[nH]ccc23)CC[C@@H]1C [PF-06651600, reference compound]
- paw swelling ([3]; CIA mice): improved to varying degrees
- arthritis score ([3]; compared with the model group): significantly decreased
- IC50 [4]: 85 nM

SMILES: C=CC(=O)N1CCc2c(c(-c3ccnc4[nH]ccc34)nn2C)C1 [crystal form IX, 1-(1-methyl-3-(1H-pyrrolo[2,3-b]pyridin-4-yl)-1,4,6,7-tetrahydro-5H-pyrazolo[4,3-c]pyridin-5-yl)prop-2-en-1-one]
- crystal transformation in hot stage XRPD [2]: transformed into crystal form I at 155 °C

SMILES: C=CC(=O)N1CCc2c(c(-c3ccnc4[nH]ccc34)nn2C)C1 [crystal form VI, 1-(1-methyl-3-(1H-pyrrolo[2,3-b]pyridin-4-yl)-1,4,6,7-tetrahydro-5H-pyrazolo[4,3-c]pyridin-5-yl)prop-2-en-1-one]
- crystal transformation in hot stage XRPD [2]: transformed into crystal form I at 150 °C

- moisture absorption rate [1]: about 2.2%
- crystal transformation in hot stage XRPD [2]: no crystal transformation at 140 °C
- crystal stability in water [5]: good crystal stability in water
SMILES: C=CC(=O)N1CCc2c(c(-c3ccnc4[nH]ccc34)nn2C)C1 [crystal form III, 1-(1-methyl-3-(1H-pyrrolo[2,3-b]pyridin-4-yl)-1,4,6,7-tetrahydro-5H-pyrazolo[4,3-c]pyridin-5-yl)prop-2-en-1-one]

- Crystal form test result ([6]; 0 days): form I
- Crystal form test result ([6]; high humidity RH90% ± 5%, 5 days): form I
- Crystal form test result ([6]; high humidity RH90% ± 5%, 15 days): stable; also recorded: form I
- Crystal form test result ([6]; high temperature 60 ± 2° C., 5 days): form I
- Crystal form test result ([6]; high temperature 60 ± 2° C., 15 days): stable; also recorded: form I
- moisture absorption rate [1]: about 2.4%
- solubility at 24 h ([7]; aqueous solution of pH 1.0, simulated gastric fluid, pH 1.0, 32° C.): 14500 µg/mL (≈ 47300 µM)
- solubility at 24 h ([7]; aqueous solution of pH 2.0, simulated gastric fluid, pH 2.0, 32° C.): 2740 µg/mL (≈ 8900 µM)
- solubility at 24 h ([7]; aqueous solution of pH 3.8, aqueous buffer, pH 3.8, 32° C.): 118 µg/mL (≈ 385 µM)
- solubility at 24 h ([7]; aqueous solution of pH 4.5, aqueous buffer, pH 4.5, 32° C.): 68.6 µg/mL (≈ 223 µM)
- solubility at 24 h ([7]; aqueous solution of pH 6.8, aqueous buffer, pH 6.8, 32° C.): 58.9 µg/mL (≈ 192 µM)
- solubility at 24 h ([7]; aqueous solution of pH 8.0, aqueous buffer, pH 8.0, 32° C.): 60.8 µg/mL (≈ 198 µM)
- solubility at 24 h ([7]; water, 32° C.): 53.2 µg/mL (≈ 173 µM)
- crystal stability in water [5]: good crystal stability in water
- Crystal form test result ([9]; 0 days): form I
- Crystal form test result ([9]; accelerated 40° C. ± 2° C., RH 75% ± 5%, 1 month): form I
- Crystal form test result ([9]; accelerated 40° C. ± 2° C., RH 75% ± 5%, 3 month): stable; also recorded: form I
- Crystal form test result ([9]; long-term 25° C. ± 2° C., RH 60% ± 5%, 1 month): form I
- Crystal form test result ([9]; long-term 25° C. ± 2° C., RH 60% ± 5%, 3 month): stable; also recorded: form I
SMILES: C=CC(=O)N1CCc2c(c(-c3ccnc4[nH]ccc34)nn2C)C1 [crystal form I, 1-(1-methyl-3-(1H-pyrrolo[2,3-b]pyridin-4-yl)-1,4,6,7-tetrahydro-5H-pyrazolo[4,3-c]pyridin-5-yl)prop-2-en-1-one]
- crystal stability in ethanol [8]: good crystal stability in the presence of ethanol

- moisture absorption rate [1]: about 1.3%
- crystal transformation in hot stage XRPD [2]: transformed to crystal form I at 150 °C
SMILES: C=CC(=O)N1CCc2c(c(-c3ccnc4[nH]ccc34)nn2C)C1 [crystal form VII, 1-(1-methyl-3-(1H-pyrrolo[2,3-b]pyridin-4-yl)-1,4,6,7-tetrahydro-5H-pyrazolo[4,3-c]pyridin-5-yl)prop-2-en-1-one]

SMILES: C=CC(=O)N1CCc2[nH]nc(-c3ccnc4[nH]ccc34)c2C1 [YZ001065]
- immunosuppressive effect on SRBC-induced delayed-type hypersensitivity (right paw thickness) (SRBC mouse model): significant immunosuppressive effects
